Converted amounts (≈) assume the structure as drawn. One block for each molecule: values may come before it.
Tests used:
[1] = in vivo; conditions: Sprague-Dawley, rat, iv, 1 mg/kg
[2] = Apparent permeability across basolateral to apical side in human Caco2 cells in presence of 0.1% bovine serum albumin; conditions: Caco-2
[3] = biological target: Cytochrome P450 2C19 (Homo sapiens, UniProt P33261); test: Inhibition of CYP2C19 (unknown origin) by luciferase reporter assay in presence of NADPH regeneration system
[4] = biological target: Cytochrome P450 2C9 (Homo sapiens, UniProt P11712); test: Inhibition of CYP2C9 (unknown origin) by luciferase reporter assay in presence of NADPH regeneration system; assay type: ADME
[5] = biological target: T1, Neuromedin-K receptor (Rattus norvegicus, UniProt P16177)
T1 sequence (P16177 whole entry): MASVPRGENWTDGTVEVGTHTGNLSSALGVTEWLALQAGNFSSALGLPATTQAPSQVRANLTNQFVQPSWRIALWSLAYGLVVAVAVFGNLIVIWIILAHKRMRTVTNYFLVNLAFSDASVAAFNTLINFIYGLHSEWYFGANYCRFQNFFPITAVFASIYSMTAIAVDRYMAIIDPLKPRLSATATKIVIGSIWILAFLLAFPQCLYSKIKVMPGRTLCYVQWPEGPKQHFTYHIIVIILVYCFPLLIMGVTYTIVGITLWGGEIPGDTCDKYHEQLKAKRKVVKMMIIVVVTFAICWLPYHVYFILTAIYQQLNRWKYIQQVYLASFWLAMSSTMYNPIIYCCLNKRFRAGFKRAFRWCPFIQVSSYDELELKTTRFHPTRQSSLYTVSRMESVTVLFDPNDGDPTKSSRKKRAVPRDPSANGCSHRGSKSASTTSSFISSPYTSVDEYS
Description: Displacement of [3H]-SB222200 from rat NK3R after 90 mins by scintillation counting analysis

[6] = biological target: T2, Cytochrome P450 1A2 (Homo sapiens, UniProt P05177); test: Inhibition of CYP1A2 (unknown origin) by luciferase reporter assay in presence of NADPH regeneration system; assay type: ADME
T2 sequence (P05177 whole entry): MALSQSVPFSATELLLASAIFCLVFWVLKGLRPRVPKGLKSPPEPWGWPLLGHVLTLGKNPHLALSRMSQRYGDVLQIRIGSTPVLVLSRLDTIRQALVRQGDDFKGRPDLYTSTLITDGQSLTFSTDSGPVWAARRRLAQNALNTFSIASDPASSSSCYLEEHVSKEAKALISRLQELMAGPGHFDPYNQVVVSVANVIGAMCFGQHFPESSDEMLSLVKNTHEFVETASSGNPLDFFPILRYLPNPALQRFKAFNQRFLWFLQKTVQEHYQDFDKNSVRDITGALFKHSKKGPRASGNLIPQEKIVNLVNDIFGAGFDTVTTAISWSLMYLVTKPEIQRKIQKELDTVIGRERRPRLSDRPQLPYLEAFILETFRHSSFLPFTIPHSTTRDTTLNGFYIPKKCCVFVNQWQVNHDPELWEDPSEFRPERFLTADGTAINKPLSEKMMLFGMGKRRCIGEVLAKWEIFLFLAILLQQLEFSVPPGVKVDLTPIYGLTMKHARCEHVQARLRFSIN

[7] = Fraction unbound in rat brain at 5 uM after 4 hrs by equilibrium dialysis method; assay type: ADME, tissue-based
[8] = biological target: T3, Neuromedin-K receptor (Homo sapiens, UniProt P29371); test: biochemical
T3 sequence (P29371 whole entry): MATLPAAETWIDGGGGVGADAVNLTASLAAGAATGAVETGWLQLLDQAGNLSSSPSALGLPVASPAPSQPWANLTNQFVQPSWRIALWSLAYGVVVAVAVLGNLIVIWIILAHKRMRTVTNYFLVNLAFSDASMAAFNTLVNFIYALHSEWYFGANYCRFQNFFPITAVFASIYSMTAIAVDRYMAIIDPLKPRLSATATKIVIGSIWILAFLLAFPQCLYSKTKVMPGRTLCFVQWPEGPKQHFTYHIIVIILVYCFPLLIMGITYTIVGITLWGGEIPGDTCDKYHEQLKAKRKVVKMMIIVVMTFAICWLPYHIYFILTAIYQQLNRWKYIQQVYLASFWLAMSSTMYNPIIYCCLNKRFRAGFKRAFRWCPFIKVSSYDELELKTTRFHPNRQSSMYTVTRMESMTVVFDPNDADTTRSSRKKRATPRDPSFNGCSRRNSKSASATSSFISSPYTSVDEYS
Description: Displacement of [3H]-SB222200 from recombinant human NK3R expressed in CHO cell membranes after 90 mins by scintillation counting analysis

[9] = Solubility of the compound in PBS buffer at pH 7.4 by shake-flask method; assay type: physicochemical
[10] = Total systemic clearance in Sprague-Dawley rat at 1 mg/kg, iv by LC-MS/MS analysis; assay type: ADME, organism-based; set-up: dose 1 mg/kg, route intravenous; conditions: in vivo
[11] = biological target: T3, Neuromedin-K receptor
[12] = tested on: Rattus norvegicus; test: Unbound AUC in Sprague-Dawley rat at 1 mg/kg, iv by LC-MS/MS analysis; assay type: ADME, organism-based; set-up: dose 1 mg/kg, route intravenous; conditions: in vivo
[13] = biological target: T4, NK-3 receptor (Macaca mulatta, UniProt Q2WGM0)
T4 sequence (Q2WGM0 whole entry): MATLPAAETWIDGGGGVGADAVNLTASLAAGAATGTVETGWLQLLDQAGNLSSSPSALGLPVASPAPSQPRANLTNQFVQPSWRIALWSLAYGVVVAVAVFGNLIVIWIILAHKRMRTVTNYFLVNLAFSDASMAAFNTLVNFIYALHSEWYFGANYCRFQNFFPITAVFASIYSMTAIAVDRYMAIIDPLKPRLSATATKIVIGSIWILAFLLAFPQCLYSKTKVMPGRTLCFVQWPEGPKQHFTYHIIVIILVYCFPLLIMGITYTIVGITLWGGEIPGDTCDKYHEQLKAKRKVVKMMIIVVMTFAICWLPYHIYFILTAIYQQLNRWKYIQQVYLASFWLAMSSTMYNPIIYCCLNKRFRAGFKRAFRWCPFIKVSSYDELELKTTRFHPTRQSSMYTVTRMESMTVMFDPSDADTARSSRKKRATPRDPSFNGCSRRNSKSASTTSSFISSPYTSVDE
Description: Displacement of [3H]-SB222200 from monkey NK3R after 90 mins by scintillation counting analysis

[14] = in vivo; conditions: Sprague-Dawley, rat, po, 3 mg/kg
[15] = Lipophilicity, log D of the compound at pH 7.4; assay type: physicochemical; conditions: buffer, read-out: logD
[16] = biological target: Kappa-type opioid receptor (Homo sapiens) (UniProt P41145); test: Inhibition of KOR (unknown origin) at 10 uM relative to control
[17] = Fraction unbound in rat plasma at 5 uM after 4 hrs by equilibrium dialysis method; assay type: ADME, cell-free
[18] = biological target: Cytochrome P450 3A4 (Homo sapiens, UniProt P08684); test: Inhibition of CYP3A4 (unknown origin) by luciferase reporter assay in presence of NADPH regeneration system; assay type: ADME
[19] = biological target: Cytochrome P450 2D6 (Homo sapiens, UniProt P10635); test: Inhibition of CYP2D6 (unknown origin) by luciferase reporter assay in presence of NADPH regeneration system; assay type: ADME
[20] = Ratio of unbound drug level in brain to plasma in Sprague-Dawley rat at 1 mg/kg, iv measured at 10 mins; conditions: brain and plasma
[21] = in vivo; conditions: Sprague-Dawley, rat, po, 3 mg/kg; remark: listed apart in the source
[22] = tested on: Rattus norvegicus; test: Unbound Cmax in Sprague-Dawley rat at 3 mg/kg, po by LC-MS/MS analysis; assay type: ADME, organism-based; set-up: dose 3 mg/kg, route oral; conditions: in vivo
[23] = Ratio of unbound drug level in brain to plasma in Sprague-Dawley rat at 1 mg/kg, iv measured at 60 mins; conditions: brain and plasma
[24] = tested on: Rattus norvegicus; test: Unbound AUC in Sprague-Dawley rat at 3 mg/kg, po by LC-MS/MS analysis; assay type: ADME, organism-based; set-up: dose 3 mg/kg, route oral; conditions: in vivo
[25] = in vivo; conditions: Sprague-Dawley, rat, iv, 1 mg/kg; remark: listed apart in the source
Description: Volume of distribution at steady state in Sprague-Dawley rat at 1 mg/kg, iv by LC-MS/MS analysis

[26] = biological target: T5, Substance-K receptor (Homo sapiens, UniProt P21452); test: Displacement of [125I]-neurokinin A from human NK2R after 90 mins by scintillation counting analysis
T5 sequence (P21452 whole entry): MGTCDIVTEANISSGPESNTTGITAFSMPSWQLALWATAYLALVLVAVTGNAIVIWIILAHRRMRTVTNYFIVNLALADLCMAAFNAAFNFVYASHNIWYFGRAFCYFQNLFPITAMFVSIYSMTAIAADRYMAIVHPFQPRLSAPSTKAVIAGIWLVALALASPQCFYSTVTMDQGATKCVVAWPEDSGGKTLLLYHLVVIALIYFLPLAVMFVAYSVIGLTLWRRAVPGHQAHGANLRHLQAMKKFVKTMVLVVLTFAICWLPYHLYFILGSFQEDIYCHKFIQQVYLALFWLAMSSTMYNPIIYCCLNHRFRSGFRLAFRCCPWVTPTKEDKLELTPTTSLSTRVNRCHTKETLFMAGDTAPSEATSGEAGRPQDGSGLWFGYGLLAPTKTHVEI

[27] = biological target: Substance-P receptor (Homo sapiens, UniProt P25103)
Description: Displacement of [3H]-Substance P from human NK1R after 90 mins by scintillation counting analysis

[28] = Apparent permeability across apical to basolateral side in human Caco2 cells in presence of 0.1% bovine serum albumin; conditions: Caco-2
[29] = biological target: Neuropeptide FF receptor 1 (Homo sapiens) (UniProt Q9GZQ6); test: Inhibition of NPFF1 (unknown origin) at 10 uM relative to control
[30] = biological target: T6, Gonadotropin-releasing hormone receptor (Homo sapiens) (UniProt P30968); test: Inhibition of GnRH-R (unknown origin) at 10 uM relative to control
T6 sequence (whole entry): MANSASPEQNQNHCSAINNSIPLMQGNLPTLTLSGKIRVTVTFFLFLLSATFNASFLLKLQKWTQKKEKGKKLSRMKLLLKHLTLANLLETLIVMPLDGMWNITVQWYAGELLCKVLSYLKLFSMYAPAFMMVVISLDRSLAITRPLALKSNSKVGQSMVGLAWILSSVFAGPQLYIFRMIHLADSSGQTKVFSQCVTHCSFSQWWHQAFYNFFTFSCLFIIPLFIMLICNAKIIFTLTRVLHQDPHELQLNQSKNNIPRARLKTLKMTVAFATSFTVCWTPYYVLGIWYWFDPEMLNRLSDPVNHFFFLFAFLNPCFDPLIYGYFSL

[31] = biological target: T5, Substance-K receptor; test: Displacement of [125I]NKA from human NK2R expressed in CHO cell membranes after 90 mins by scintillation counting analysis

Substance-P receptor, sequence (P25103 whole entry): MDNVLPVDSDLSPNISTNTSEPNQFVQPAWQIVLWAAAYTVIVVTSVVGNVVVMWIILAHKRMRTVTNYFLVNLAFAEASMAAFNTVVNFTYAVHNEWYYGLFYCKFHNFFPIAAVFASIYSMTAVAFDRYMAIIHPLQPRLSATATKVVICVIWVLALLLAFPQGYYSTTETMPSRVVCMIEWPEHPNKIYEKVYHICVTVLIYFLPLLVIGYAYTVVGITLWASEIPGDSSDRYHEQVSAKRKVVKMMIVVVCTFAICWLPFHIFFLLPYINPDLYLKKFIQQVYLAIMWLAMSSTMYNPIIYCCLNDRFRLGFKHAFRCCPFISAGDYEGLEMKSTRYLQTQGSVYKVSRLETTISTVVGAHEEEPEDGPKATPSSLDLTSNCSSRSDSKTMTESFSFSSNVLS
Kappa-type opioid receptor (Homo sapiens), sequence (P41145 whole entry): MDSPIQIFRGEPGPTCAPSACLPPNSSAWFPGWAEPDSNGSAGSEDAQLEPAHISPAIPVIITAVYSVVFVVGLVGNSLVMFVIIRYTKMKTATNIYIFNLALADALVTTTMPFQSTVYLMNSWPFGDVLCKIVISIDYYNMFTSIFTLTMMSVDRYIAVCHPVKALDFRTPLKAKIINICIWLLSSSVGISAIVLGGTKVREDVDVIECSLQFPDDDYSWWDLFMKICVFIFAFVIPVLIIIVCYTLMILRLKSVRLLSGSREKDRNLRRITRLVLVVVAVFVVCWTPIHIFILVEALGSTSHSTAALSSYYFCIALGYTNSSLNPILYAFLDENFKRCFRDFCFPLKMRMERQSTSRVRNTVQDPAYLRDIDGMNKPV
Cytochrome P450 2D6, sequence (P10635 whole entry): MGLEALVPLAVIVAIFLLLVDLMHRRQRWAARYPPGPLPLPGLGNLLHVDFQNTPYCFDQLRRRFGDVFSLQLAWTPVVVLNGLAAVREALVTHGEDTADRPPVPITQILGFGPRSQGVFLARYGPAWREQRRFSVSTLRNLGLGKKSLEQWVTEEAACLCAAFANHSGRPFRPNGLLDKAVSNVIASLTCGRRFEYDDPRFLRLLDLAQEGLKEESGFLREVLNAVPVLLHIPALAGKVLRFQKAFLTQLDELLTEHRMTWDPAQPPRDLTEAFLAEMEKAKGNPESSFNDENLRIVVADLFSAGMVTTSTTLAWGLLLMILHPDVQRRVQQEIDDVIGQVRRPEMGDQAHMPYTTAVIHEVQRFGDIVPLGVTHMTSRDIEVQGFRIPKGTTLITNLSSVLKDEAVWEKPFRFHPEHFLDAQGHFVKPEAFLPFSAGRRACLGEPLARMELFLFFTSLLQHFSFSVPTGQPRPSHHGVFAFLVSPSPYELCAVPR
Cytochrome P450 2C19, sequence (P33261 whole entry): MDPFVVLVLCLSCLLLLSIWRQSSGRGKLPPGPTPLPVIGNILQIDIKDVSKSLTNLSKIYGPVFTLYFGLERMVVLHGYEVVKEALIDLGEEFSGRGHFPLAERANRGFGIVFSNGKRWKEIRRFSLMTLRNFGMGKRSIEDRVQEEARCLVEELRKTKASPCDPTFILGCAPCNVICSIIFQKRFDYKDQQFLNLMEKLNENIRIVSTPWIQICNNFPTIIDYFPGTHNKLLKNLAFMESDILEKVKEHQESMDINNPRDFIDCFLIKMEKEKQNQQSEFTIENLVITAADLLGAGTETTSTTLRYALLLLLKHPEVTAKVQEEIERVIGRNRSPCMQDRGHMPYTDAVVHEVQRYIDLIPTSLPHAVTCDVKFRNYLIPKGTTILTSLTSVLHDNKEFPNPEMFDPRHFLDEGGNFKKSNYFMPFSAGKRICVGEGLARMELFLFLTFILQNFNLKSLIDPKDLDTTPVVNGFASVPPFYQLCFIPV
Cytochrome P450 2C9, sequence (P11712 whole entry): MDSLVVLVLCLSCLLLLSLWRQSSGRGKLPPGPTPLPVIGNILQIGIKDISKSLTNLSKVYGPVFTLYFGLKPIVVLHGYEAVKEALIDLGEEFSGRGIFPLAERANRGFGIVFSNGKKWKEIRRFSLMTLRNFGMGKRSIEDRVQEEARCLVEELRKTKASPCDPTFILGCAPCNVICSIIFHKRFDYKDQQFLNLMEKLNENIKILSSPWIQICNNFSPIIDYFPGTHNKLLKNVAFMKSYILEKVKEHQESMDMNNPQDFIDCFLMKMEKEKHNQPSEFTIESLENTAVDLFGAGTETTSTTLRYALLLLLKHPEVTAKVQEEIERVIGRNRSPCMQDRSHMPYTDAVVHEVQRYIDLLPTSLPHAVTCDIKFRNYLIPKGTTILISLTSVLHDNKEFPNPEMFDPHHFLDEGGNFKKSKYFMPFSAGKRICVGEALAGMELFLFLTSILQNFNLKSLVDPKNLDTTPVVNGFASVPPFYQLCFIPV
Cytochrome P450 3A4, sequence (P08684 whole entry): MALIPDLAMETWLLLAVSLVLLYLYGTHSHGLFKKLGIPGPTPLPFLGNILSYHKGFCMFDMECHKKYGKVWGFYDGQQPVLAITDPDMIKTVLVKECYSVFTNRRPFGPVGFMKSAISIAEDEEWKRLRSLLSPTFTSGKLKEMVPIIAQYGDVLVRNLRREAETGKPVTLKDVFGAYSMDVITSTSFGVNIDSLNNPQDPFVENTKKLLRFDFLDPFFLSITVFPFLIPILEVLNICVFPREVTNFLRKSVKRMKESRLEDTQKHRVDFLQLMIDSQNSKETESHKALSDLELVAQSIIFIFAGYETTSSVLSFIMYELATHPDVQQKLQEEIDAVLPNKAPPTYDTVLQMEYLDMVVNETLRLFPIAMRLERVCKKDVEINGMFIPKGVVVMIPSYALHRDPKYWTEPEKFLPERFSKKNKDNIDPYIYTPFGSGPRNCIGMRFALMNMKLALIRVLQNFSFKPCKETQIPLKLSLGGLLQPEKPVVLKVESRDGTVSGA
Neuropeptide FF receptor 1 (Homo sapiens), sequence (Q9GZQ6 whole entry): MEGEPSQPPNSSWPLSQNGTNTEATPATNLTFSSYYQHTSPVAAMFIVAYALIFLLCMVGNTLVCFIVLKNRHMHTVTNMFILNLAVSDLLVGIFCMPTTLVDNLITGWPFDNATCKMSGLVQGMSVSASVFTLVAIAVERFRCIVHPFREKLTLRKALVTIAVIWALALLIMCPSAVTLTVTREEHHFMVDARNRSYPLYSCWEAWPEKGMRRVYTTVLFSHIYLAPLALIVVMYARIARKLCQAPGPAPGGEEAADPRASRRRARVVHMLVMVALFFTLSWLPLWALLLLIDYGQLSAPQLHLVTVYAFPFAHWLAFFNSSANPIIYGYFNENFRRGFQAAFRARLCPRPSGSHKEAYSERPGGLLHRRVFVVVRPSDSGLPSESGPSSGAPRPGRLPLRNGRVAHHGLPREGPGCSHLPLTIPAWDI

- half-life [1]: 3.5 h
- Papp B→A [2]: 43.8 ×10⁻⁶ cm/s
- IC50 [3]: 22 µM
- IC50 [4]: 14 µM
- Ki [5]: 0.032 µM
- IC50 [6]: 81 µM
- fraction unbound at 4 h, 5 µM [7]: 0.016
- Ki [8]: 0.00316 µM
- solubility thermodynamic [9]: 119 µM (≈ 51.6 µg/mL)
- clearance [10]: 8.2 mL/min/kg
- IC50 [11]: 0.00398 µM
- fAUC [12]: 9.3 µM·min
- Ki [13]: 0.00631 µM
- Tmax [14]: 1.13 h
- logD [15]: 3.3
- inhibition [16]: 41%
- fraction unbound at 4 h, 5 µM [17]: 0.036
- IC50 [18]: 43 µM
- IC50 [19]: 65 µM
- Kp uu at 10 min [20]: 0.2
- bioavailability [21]: 49%
- fCmax [22]: 58.7 nM
- Kp uu at 1 h [23]: 0.2
- fAUC [24]: 13.6 µM·min
- Vd [25]: 2.6 L/kg
- Ki [26]: 10 µM
- Ki [27]: 7.94 µM
- Papp A→B [28]: 46.4 ×10⁻⁶ cm/s
SMILES: CC(C)c1nc(-c2nnc3n2CCN(C(=O)c2ccc(-c4cccs4)cc2)[C@@H]3C)co1

- inhibition [29]: 24%
- Ki [13]: 0.00631 µM
- inhibition [30]: 35%
- inhibition [16]: 42%
- Ki [26]: 12.6 µM
- Ki [27]: 12.6 µM
SMILES: Cc1nsc(-c2nnc3n2CCN(C(=O)c2ccc(-c4cccs4)cc2)[C@@H]3C)n1

- Ki [31]: 0.0158 µM
SMILES: CSCC[C@H](NC(=O)[C@H](CC(C)C)NC(=O)CNC(=O)[C@@H](NC(=O)[C@H](Cc1ccccc1)NC(=O)[C@H](Cc1ccccc1)NC(=O)[C@H](CC(=O)O)NC(=O)[C@H](Cc1c[nH]cn1)NC(=O)[C@H](CCSC)NC(=O)[C@@H](N)CC(=O)O)C(C)C)C(N)=O [NEUROKININ B]

Source: ChEMBL document CHEMBL3421625, “Discovery and optimization of novel antagonists to the human neurokinin-3 receptor for the treatment of sex-hormone disorders (Part I)” (J Med Chem, 2015)
